Source: patent publication US8361967B2, “Beta sheet inhibiting peptides for preventing and/or treating Alzheimer's Disease” (Tianjin Medical University, priority 2008, dated 2013)
No end group written: not given here.

What was measured:
Aβ1-42 peptide [1] = biological target: T1, Aβ1-42 peptide (Homo sapiens, UniProt P05067); conditions: for ThT fluorescence intensity over time vs Aβ1-42 alone: 44.30 μmol/L with Aβ1-42 11.07 μmol/L, 37° C., 12 h to 7 d; for dose dependence of effect on Aβ fibril formation / most effective concentration for inhibition of Aβ fibril formation: 10-100 μmol/L with Aβ1-42 11.07 μmol/L; for dose dependence of effect on Aβ fibril formation / effect on Aβ1-42 aggregation and fibril formation (ThT, FIG. 2) / Inhibition (%) of Aβ aggregation / most effective concentration for inhibition of Aβ fibril formation: 37° C. for 24 h; for effect on Aβ1-42 aggregation and fibril formation (ThT, FIG. 2) / Inhibition (%) of Aβ aggregation: Aβ1-42 11.07 μmol/L, test substance 44.30 μmol/L; for Inhibition (%) of Aβ aggregation: Aβ1-42 alone = 100% fluorescence; for most effective concentration for inhibition of Aβ fibril formation: dose-effect
Procedure: 2. […] Each solution was incubated at 37° C. for 24 h, and 10 μl was taken out from each group and added into 990 μl of 3.0 μmol/L ThT phosphate buffer. ThT fluorescence intensity was measured at the excitation wavelength of 453 nm and emission wavelength of 478˜486 nm.
3. The dose-effect and time-effect relationships of the polypeptides of the invention on Aβ1-42: polypeptide H102 was formulated in PBS (as described above) to obtain a series of concentrations, and Aβ1-42 was added into the solutions to the concentration of 11.07 μmol/L. The resulted solutions were incubated at 37° C. for 24 hours, and samples were taken and measured for ThT fluorescence intensity, in order to determine the dose-effect relationship of the polypeptides of the invention on Aβ1-42. Solutions containing H102 of 44.30 μmol/L and Aβ1-42 of 11.07 μmol/L, or Vitamin E of 44.30 μmol/L and Aβ1-42 of 11.07 μmol/L, respectively, were incubated at 37° C. Samples were taken and measured for ThT fluorescence intensity at the time points of 12 hours (12 h), 1 day (1 d), 3 days (3 d), 5 days (5 d) and 7 days (7 d) after the incubation, in order to determine the time-effect relationships of various polypeptides on Aβ1-42.

Aβ1-42 peptide [2] = biological target: T1, Aβ1-42 peptide; assay: Electron microscopy of Aβ1-42 fibril formation; format: biochemical; parameters: Reagents: Aβ1-42 (purity >98%); purchased Sigma-Aldrich, Inc; conditions: peptide 44.30 μmol/L with Aβ1-42 11.07 μmol/L, 37° C., 5 days; for length of formed Aβ fibrils: Aβ alone about 0.5 to 5 μm; for diameter of formed Aβ fibrils: Aβ alone about 8 to 10 nm
Procedure: 4. […] Samples of 5 μl were taken from each group, dropped onto a 300-mesh deionized copper mesh with carbon support film, and left to stand at room temperature for 15 min. The samples were negatively stained in dark by 2% uranyl acetate for 2 min. After drying, the samples were observed under a transmission electron microscope.

APP 695 transgenic mice [3] = assay: Immunohistochemical staining of hippocampal CA1 neurons (anti-APP N-terminal and anti-Aβ antibody) in APP 695 transgenic mice; format: in vivo; conditions: intracerebroventricular 3 μl of 40 μmol/L daily for 10 days
Text: (§1) Experimental animals: thirty APP 695 transgenic mice of nine-month-old and ten C57BL/6J mice which are matched in genetic background and age, were all purchased from the experimental animal research center of Peking Union Medical College, Chinese Academy of Medical Sciences.
(§2) Animal grouping and model preparation: the thirty APP 695 transgenic mice were randomly divided into model group of 15 mice and the polypeptide-injected group of 15 mice. Ten C57BL/6J mice were used as a normal control group. For the polypeptide-injected group, the animals were received intracerebroventricular injection of 3 μl of saline solution containing H102 of 40 μmol/L each time. For the control group and model group, the animals were received intracerebroventricular injection of 3 μl of normal saline solution each time. The injection was carried out daily for 10 days. All animals were kept in the same conditions in SPF-grade mice room in the experimental animal research center of Tianjin Medical University
(§3) The animals were anaesthetized intraperitoneally by 10% chloral hydrate at a dose of 400 mg/Kg weight. The animals were fixed on a brain stereotaxic frame, and the hair was cut off. After disinfection with Anerdian, the skin was incised along the midline of the head for about 1 cm. The periosteum was stripped to expose the bone marks. […]

APP 695 transgenic mice [4] = assay: Congo Red staining of amyloid plaques in temporal cortex and hippocampus of APP 695 transgenic mice; format: in vivo; conditions: intracerebroventricular 3 μl of 40 μmol/L daily for 10 days
Text: as §1, §2, §3

[5] = tested on: human neuroblastoma SH-SY5Y cells; assay: Cytotoxicity test (MTT): viability of SH-SY5Y cells incubated with Aβ1-42; format: cell-based; conditions: 72 hours
Procedure: 5. Cytotoxicity test: a commonly-used cell line, human neuroblastoma SH-SY5Y, was used in the assay of cytotoxcity, which was purchased from Xuanwu Hospital of Capital Medical University and cultured in MEM medium (supplemented with 10% (v/v) fetal bovine serum) by conventional methods, in a 37° C., 5% CO2 incubator. The cell line was subcultured once every 5 days. When the SH-SY5Y cells grew stably in the logarithmic phase, the cells were inoculated into a 96 well plates (Costar) in a density of 1.0×10^4/ml, with 200 μl of medium added per well. After 24 hours, the medium was replaced by serum-free medium, and Aβ1-42 was added to the concentration of 5 μmol/L. The wells were divided into several groups. […] At 72 hours after the addition of the polypeptides, 20 μl of 3-(4,5-dimethyl-2-thiazolyl)-2,5-diphenyltetrazole bromide (MTT) (5 mg/ml) was added into each well, and the plate was incubated at 37° C. for 4 hours. Then the original culture medium was discarded, and 200 μl of DMSO was added into each well. The plate was left to stand for 10 min and then shaken for 1 min, allowing the Formazane particles to be completely dissolved. Then the optical density (OD) at 492 nm was measured on an automatic microplate reader.

| Substance | T1/2, time point at which the fluorescence intensity reaches the half-peak (Aβ1-42 peptide [1]) | ThT fluorescence intensity over time vs Aβ1-42 alone (Aβ1-42 peptide [1]) | dose dependence of effect on Aβ fibril formation (Aβ1-42 peptide [1]) | effect on Aβ1-42 aggregation and fibril formation (ThT, FIG. 2) (Aβ1-42 peptide [1]) | Inhibition (%) of Aβ aggregation (Aβ1-42 peptide [1]) | most effective concentration for inhibition of Aβ fibril formation (Aβ1-42 peptide [1]) | length of formed Aβ fibrils (Aβ1-42 peptide [2]) | diameter of formed Aβ fibrils (Aβ1-42 peptide [2]) | amount of Aβ1-42 positive cells in brain CA1 area vs model group (APP 695 transgenic mice [3]) | amyloid plaques (Congo red) vs transgenic model group (APP 695 transgenic mice [4]) | effect on viability of SH-SY5Y cells ([5]; 10, 20 and 40 μmol/L with Aβ1-42 5 μmol/L) | optimal concentration to improve the viability of cells ([5]; Aβ1-42 5 μmol/L) |
| --- | --- | --- | --- | --- | --- | --- | --- | --- | --- | --- | --- | --- |
| Vitamin E | fourth day | significantly weaker at each time point | dose-dependent | remarkably inhibit | 24.85% | about 20 μmol/L | – | – | – | – | – | – |
| Leu-Pro-Phe-Phe-Asp (LPFFD; printed: Leu-Pro-Phe-Phe-Asp) [L5, reference compound] | – | – | – | – | 25.74% | – | 0.3 to 5 μm | 4 to 8 nm | – | – | – | – |
| HKQLPFFEED [H102] | fourth day | significantly weaker at each time point | dose-dependent | remarkably inhibit | – | about 20 μmol/L | 0.3 to 3 μm | 3 to 6 nm | much lower than that of the model group | much lower in the number and size | most effective to improve the viability of cells | 20 µmol/L |
